# Measured values reported in patent US9434994B2, “Methods for prediction of clinical outcome to epidermal growth factor receptor inhibitors by non-small cell lung cancer patients” (The Regents of the University of Colorado, a body corporate, priority 2004, dated 2016).
# Where “and” joins values, the source holds several entries; their conditions need not be identical. Equal entries are not always repeated. Where two headings read alike, the source gives them in different places.
# Tested on: advanced non-small-cell lung cancer patients
# [1] = EGFR FISH Group 1 (disomy to low polysomy)
# [2] = EGFR FISH Group 2 (high polysomy, amplification)
# [3] = EGFR FISH- and/or P-Akt- (any negative)
# [4] = EGFR IHC- and/or P-Akt- (any negative)
# [5] = EGFR mutation- and/or P-Akt- (any negative)
# [6] = HER2 FISH+ and/or EGFR IHC+ (other three groups combined)
# Protocol: Eligibility included histologically confirmed NSCLC patients with measurable, locally advanced or metastatic disease, who had progressed or relapsed after chemotherapy, and patients ineligible for chemotherapy because they were elderly, had poor performance status, or comorbid medical condition. Before trial inclusion, smoking status was assessed and patients were classified as never, former (smoking cessation >6 months prior to trial inclusion), or current smokers (cessation <6 months before trial inclusion or active smoker).
# Patients were evaluated for response according to the RECIST criteria (30). Tumor response was assessed by computer tomography scan every two months, with a confirmatory evaluation to be repeated in responding patients at least 4 weeks after the initial determination of response. […] Survival (OS) was calculated from the date of therapy initiation to the date of death or last contact.
# Differences between the FISH groups were compared by Fisher's exact test or χ^2 test for qualitative variables and by t-student test or ANOVA for continuous variables. Normality of the distribution was assessed by Kolmogorov-Smirnov test. […] Risk factors associated with survival were evaluated using Cox's proportional-hazards regression model with a step-down procedure (33). Only those variables with significant results in univariate analysis were included in the multivariate analysis. The criteria for variable removal was the likelihood ratio statistic based on the maximum partial likelihood estimated (default p-value=0.10 for removal from the model).
# Complete clinical information and tissue blocks were available from 80 out of 106 patients enrolled in the Akt clinical trial (Cappuzzo et al., ibid.), and from an additional 22 patients in the Expanded Access Study who were treated consecutively at the end of the Akt study and followed in the same way as patients in the Akt trial.
# Eligibility for both studies included histologically confirmed NSCLC with measurable, locally advanced or metastatic disease, progressing or relapsing after chemotherapy or with medical contraindications for chemotherapy. Patients had performance status ranging from grade 0 to 2. Performance status was defined according to Eastern Cooperative Oncology Group (Oken et al., 1982) and considered grade 0 when the patient was fully active and able to perform all pre-disease activities without restriction, grade 1 when the patient was restricted in physically strenuous activity but ambulatory and able to perform work of a light or sedentary nature, and grade 2 when the patient was ambulatory and capable of all self-care but unable to perform any work activities.
# Tumor response was assessed by computer tomography scan after 2 months, with a confirmatory evaluation to be repeated in responders and in patients with stable disease at least 4 weeks after the initial determination of response. […] Survival was calculated from the date of therapy initiation to the date of death or to the date of last contact.
# Differences between and among groups were compared using Fisher's exact test or Pearson's chi square test for qualitative variables and using student's t test or analysis of variance for continuous variables. Normality of the distribution was assessed using the Kolmogorov-Smirnov test (Curiel et al., 1990).
structure (smiles),measurement,setting,value
COc1cc2ncnc(Nc3ccc(F)c(Cl)c3)c2cc1OCCCN1CCOCC1 [gefitinib],Patients progressed at 12 months,EGFR FISH Group 1,91%
same,Two-year survival rate,EGFR FISH Group 1,17%
same,% Patients without disease progression at 12 months,[1],8.7%
same,Complete and Partial Response,[1],2.9%
same,Median Time to Progression,[1],2.5 months
same,One-year Survival Rate,[1],36.2%
same,Progressive Disease,[1],73.9%
same,Stable Disease,[1],23.2%
same,Patients progressed at 12 months,EGFR FISH Group 2,61%
same,Two-year survival rate,EGFR FISH Group 2,40%
same,% Patients without disease progression at 12 months,[2],39.4%
same,Complete and Partial Response,[2],36% and 36.4%
same,Disease Control Rate,[2],66.7%
same,Median Time to Progression,[2],6.3 months
same,One-year Survival Rate,[2],63.6%
same,Progressive Disease,[2],33.3%
same,Stable Disease,[2],30.3%
same,% Patients without disease progression at 12 months,EGFR FISH disomy,8.3%
same,Complete and Partial Response,EGFR FISH disomy,no responders
same,Median Time to Progression,EGFR FISH disomy,2.5 months
same,One-year Survival Rate,EGFR FISH disomy,38.9%
same,Progressive Disease,EGFR FISH disomy,75%
same,Stable Disease,EGFR FISH disomy,25.0%
same,% Patients without disease progression at 12 months,EGFR FISH high polysomy,35.0%
same,Disease Control Rate,EGFR FISH high polysomy,60.0%
same,Median Time to Progression,EGFR FISH high polysomy,6.6 months
same,One-year Survival Rate,EGFR FISH high polysomy,65.0%
same,Progressive Disease,EGFR FISH high polysomy,40%
same,Stable Disease,EGFR FISH high polysomy,35%
same,% Patients without disease progression at 12 months,EGFR FISH high trisomy,100%
same,Complete and Partial Response,EGFR FISH high trisomy,100%
same,Disease Control Rate,EGFR FISH high trisomy,100%
same,Median Overall Survival,EGFR FISH high trisomy,13.7 months
same,One-year Survival Rate,EGFR FISH high trisomy,100%
same,% Patients without disease progression at 12 months,EGFR FISH low polysomy,0%
same,Complete and Partial Response,EGFR FISH low polysomy,no responders
same,Disease Control Rate,EGFR FISH low polysomy,14.3%
same,Median Overall Survival,EGFR FISH low polysomy,3.0 months
same,Median Time to Progression,EGFR FISH low polysomy,2.1 months
same,Progressive Disease,EGFR FISH low polysomy,86% and 85.7%
same,Stable Disease,EGFR FISH low polysomy,14.3%
same,% Patients without disease progression at 12 months,EGFR FISH low trisomy,5.9%
same,Complete and Partial Response,EGFR FISH low trisomy,no responders
same,Disease Control Rate,EGFR FISH low trisomy,29.4%
same,Median Overall Survival,EGFR FISH low trisomy,10.2 months
same,Median Time to Progression,EGFR FISH low trisomy,3.6 months
same,One-year Survival Rate,EGFR FISH low trisomy,41.2%
same,Progressive Disease,EGFR FISH low trisomy,71% and 70.6%
same,Stable Disease,EGFR FISH low trisomy,29.4%
same,1-year Cumulative Survival ± SD,EGFR FISH+/P-Akt+,33 ± 9%
same,Median Survival,EGFR FISH+/P-Akt+,18.7 months
same,1-year Cumulative Survival ± SD,EGFR FISH+/P-Akt-,75 ± 22%
same,Median Time to Progression,EGFR FISH+/P-Akt-,1.1 months
same,Objective Response,EGFR FISH+/P-Akt-,0%
same,Disease Control Rate,[3],28% and 19/27%
same,Median Time to Progression,[3],2.5 months
same,Objective Response,[3],3% and 2/3%
same,Median Time to Progression,EGFR FISH-/P-Akt+,2.6 months
same,Objective Response,EGFR FISH-/P-Akt+,5% and 2/5%
same,1-year Cumulative Survival ± SD,EGFR FISH-/P-Akt-,57 ± 9%
same,Disease Control Rate,EGFR FISH-/P-Akt-,6/22%
same,Median Time to Progression,EGFR FISH-/P-Akt-,2.4 months
same,Objective Response,EGFR FISH-/P-Akt-,0%
same,1-year survival,EGFR IHC score 0-99,27% and 27 ± 10%
same,MS (median overall survival),EGFR IHC score 0-99,4.5 mo
same,PD (progressive disease),EGFR IHC score 0-99,19 (95%)
same,TTP,EGFR IHC score 0-99,2.1 mo
same,1-year survival,EGFR IHC score 100-199,35% and 35 ± 10%
same,MS (median overall survival),EGFR IHC score 100-199,5.3 mo
same,OR (objective response),EGFR IHC score 100-199,2 (10%)
same,TTP,EGFR IHC score 100-199,2.3 mo
same,MS (median overall survival),EGFR IHC score 200-299,15.2 mo
same,OR (objective response),EGFR IHC score 200-299,4 (26%)
same,PD (progressive disease),EGFR IHC score 200-299,5 (33%)
same,MS (median overall survival),EGFR IHC score 300-400,11.3 mo
same,PD (progressive disease),EGFR IHC score 300-400,21 (49%)
same,TTP,EGFR IHC score 300-400,4.5 mo
same,1-year survival,EGFR IHC+ (≧200),48 ± 7%
same,MS (median overall survival),EGFR IHC+ (≧200),11.5 mo
same,TTP,EGFR IHC+ (≧200),5.2 mo
same,Median Time to Progression,EGFR IHC+/P-Akt+,6.2 months
same,1-year Cumulative Survival ± SD,EGFR IHC+/P-Akt-,35 ± 12%
same,Median Time to Progression,EGFR IHC+/P-Akt-,1.8 months
same,Objective Response,EGFR IHC+/P-Akt-,0%
same,1-year survival,EGFR IHC- (<200),31 ± 7%
same,MS (median overall survival),EGFR IHC- (<200),5.0 mo
same,TTP,EGFR IHC- (<200),2.3 mo
same,1-year Cumulative Survival ± SD,[4],35 ± 7%
same,Median Time to Progression,[4],2.3 months
same,Objective Response,[4],4% and 2/3%
same,Disease Control Rate,EGFR IHC-/P-Akt+,7/27%
same,Median Time to Progression,EGFR IHC-/P-Akt+,2.3 months
same,Objective Response,EGFR IHC-/P-Akt+,2/8%
same,1-year Cumulative Survival ± SD,EGFR IHC-/P-Akt-,54 ± 8%
same,Disease Control Rate,EGFR IHC-/P-Akt-,1/7%
same,Median Survival,EGFR IHC-/P-Akt-,4.2 months
same,Median Time to Progression,EGFR IHC-/P-Akt-,2.0 months
same,Objective Response,EGFR IHC-/P-Akt-,0%
same,Median Survival,EGFR Mutation+/P-Akt+,20.8 months
same,Median Time to Progression,EGFR Mutation+/P-Akt+,11.2 months
same,Disease Control Rate,EGFR Mutation+/P-Akt-,0%
same,Median Survival,EGFR Mutation+/P-Akt-,3.1 months
same,Median Time to Progression,EGFR Mutation+/P-Akt-,1.1 months
same,Objective Response,EGFR Mutation+/P-Akt-,0%
same,1-year Cumulative Survival ± SD,EGFR Mutation-/P-Akt+,50 ± 35%
same,Median Time to Progression,EGFR Mutation-/P-Akt+,2.7 months
same,Objective Response,EGFR Mutation-/P-Akt+,4/9%
same,1-year Cumulative Survival ± SD,EGFR Mutation-/P-Akt-,65 ± 14%
same,Disease Control Rate,EGFR Mutation-/P-Akt-,6/22%
same,Median Time to Progression,EGFR Mutation-/P-Akt-,2.4 months
same,Objective Response,EGFR Mutation-/P-Akt-,0%
same,% Patients without disease progression at 12 months,EGFR gene amplification,46.2%
same,Complete and Partial Response,EGFR gene amplification,53.8% and 54%
same,Disease Control Rate,EGFR gene amplification,76% and 76.9%
same,Median Time to Progression,EGFR gene amplification,6.0 months
same,One-year Survival Rate,EGFR gene amplification,61.5%
same,Progressive Disease,EGFR gene amplification,23.1%
same,Stable Disease,EGFR gene amplification,23.1%
same,1-year survival,EGFR mutation absent,38 ± 6
same,PD,EGFR mutation absent,50 (68%)
same,TTP,EGFR mutation absent,2.6 mo
same,1-year survival,EGFR mutation present,57 ± 13
same,MS,EGFR mutation present,20.8 mo
same,TTP,EGFR mutation present,9.9 mo
same,Disease Control Rate,[5],32% and 23/31%
same,Median Time to Progression,[5],2.6 months
same,Objective Response,[5],6% and 4/5%
same,DCR,HER2 FISH+,56.5%
same,OR,HER2 FISH+,34.8%
same,OS,HER2 FISH+,20.8 months
same,TTP,HER2 FISH+,9.05 months
same,DCR,HER2 FISH+ and/or EGFR FISH+,57.1%
same,OR,HER2 FISH+ and/or EGFR FISH+,28.6%
same,DCR,[6],51.5%
same,OR,[6],19.1%
same,OR,HER2 FISH+ and/or EGFR mutation+ (other groups combined),30.8%
same,DCR,HER2 FISH+/EGFR FISH+,76.9%
same,OR,HER2 FISH+/EGFR FISH+,53.8%
same,median OS,HER2 FISH+/EGFR FISH+,20.8 months
same,median TTP,HER2 FISH+/EGFR FISH+,9.8 months
same,OR,HER2 FISH+/EGFR FISH-,21.0%
same,median TTP,HER2 FISH+/EGFR FISH-,2.3 months
same,DCR,HER2 FISH+/EGFR IHC+,76.9%
same,OR,HER2 FISH+/EGFR IHC+,53.8%
same,OS,HER2 FISH+/EGFR IHC+,20.8 months
